In patent US20260108546A1 (ELI LILLY AND COMPANY, priority 2024, published 2026):

Target: T1, hGIP-R (Homo sapiens, UniProt P48546)
T1 construct: expressed in transfected cells; host or cells: HEK-293 clonal cell lines
T1 sequence (P48546 22-466): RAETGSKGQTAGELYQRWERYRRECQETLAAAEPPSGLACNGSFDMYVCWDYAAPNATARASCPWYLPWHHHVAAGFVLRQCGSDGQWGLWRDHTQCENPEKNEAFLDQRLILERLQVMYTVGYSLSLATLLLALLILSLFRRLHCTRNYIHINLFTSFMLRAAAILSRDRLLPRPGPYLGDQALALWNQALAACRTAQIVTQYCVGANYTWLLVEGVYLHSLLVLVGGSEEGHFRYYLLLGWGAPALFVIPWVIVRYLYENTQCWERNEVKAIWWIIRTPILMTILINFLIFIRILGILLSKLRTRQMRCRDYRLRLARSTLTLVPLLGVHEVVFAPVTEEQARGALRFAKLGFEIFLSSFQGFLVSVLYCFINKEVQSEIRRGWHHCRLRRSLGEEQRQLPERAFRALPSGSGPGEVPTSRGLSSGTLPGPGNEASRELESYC
Assay: Functional hGIP-R Assay (cAMP formation, HTRF)
Assay type: cell-based
Conditions: for Emax: cAMP efficacy, percent of maximal response to GIP(1-42)OH, 37° C., 0.1% bovine casein, arithmetic mean ± SEM; for EC50: cAMP potency, HEK-293 cells expressing hGIP-R, incubated at 37° C. in the presence of 0.1% bovine casein, geometric mean, read-out: Human GIP-R EC50, nM (SEM, n)
Procedure: Functional activity was determined using CAMP formation in HEK-293 clonal cell lines expressing hGIP-R. hGIP-R receptor expressing cells were treated with compound (20 point concentration-response curve in DMSO, 2-fold Labcyte Echo direct dilution, 384 well plate Corning Cat #3570) in DMEM (Gibco Cat #31053) supplemented with 1× GlutaMAX™ (Gibco Cat #35050), 0.1% bovine casein (Sigma C4765-10ML), 250 μM IBMX (3-Isobutyl-1-methylxanthine, Acros Cat #228420010) and 20 mM HEPES (Gibco Cat #15630) in a 20 μL assay volume (final DMSO concentration was 1%). After a 30 min incubation at 37° C., the resulting increase in intracellular cAMP was quantitatively determined using the Revvity CAMP Dynamic 2 HTRF Assay Kit (62AM4PEJ). Briefly, cAMP levels within the cell were detected by adding the cAMP-d2 conjugate in cell lysis buffer (10 μL) followed by the antibody anti-cAMP-Eu^3+-Cryptate, also in cell lysis buffer (10 μL). The resulting competitive assay was incubated for at least 60 min at RT, then detected using a BMG Labtech PHERAstar FSX instrument with excitation at 320 nm and emission at 665 nm and 620 nm. PHERAstar units (emission at 665 nm/620 nm*10,000) are inversely proportional to the amount of cAMP present and were converted to nM cAMP per well using a CAMP standard curve. The amount of cAMP generated (nM) in each well was converted to a percent of the maximal response observed with human GIP (1-42) OH. A relative EC50 value and percent top (Emax) were derived by non-linear regression analysis using the percent maximal response vs. the concentration of compound added, fitted to a four-parameter logistic equation.

Emax [%] | EC50 [nM] | SMILES
79.5 ± 5.3 | 144 | Cn1cc2cc(-c3ccc([C@H]4C[C@@]45CCN([C@H](Cc4cnn(C(F)F)c4)C(=O)NC4(Cn6nc(C(F)(F)F)cc6-c6cc(F)c(=O)n(C)c6)CC4)C5=O)c(F)c3)cnc2n1 (single isomer, unassigned; isomer 1) [Example 119]
84.8 ± 5.99 | 51.7 | [2H]C([2H])([2H])N(C(=O)C1CC1(C)c1ccc(-c2cnc3nn(C)cc3c2)cc1F)[C@H](Cc1cnn(C(F)F)c1)C(=O)NC(C)(C)Cn1nc(C(F)(F)F)cc1-c1cc(F)c(=O)n(C)c1 (single isomer, unassigned; isomer 1) [Example 140]
77 ± 2.05 | 0.478 | Cc1cn2cc(-c3ccc(C4CC45CCN([C@H](Cc4cnn(C(F)F)c4)C(=O)NC(C)(C)Cn4nc(C(F)(F)F)cc4-c4ccc(=O)n(C)c4)C5=O)c(C(F)(F)F)c3)cnc2n1 (single isomer, unassigned; isomer 1) [Example 153]
115 ± 1.59 | 0.845 | Cc1cn2cc(-c3ccc([C@H]4C[C@@]45CCN([C@H](Cc4cnn(C(F)F)c4)C(=O)NC(C)(C)Cc4nc(C(F)(F)F)cn4C4CCN(C)C4=O)C5=O)c(Cl)c3)cnc2n1 (single isomer, unassigned; isomer 1) [Example 177]
99.7 ± 0.756 | 246 | Cn1cc(C[C@@H](NC(=O)C2CC2c2ccc(-c3cnc4nn(C)cc4c3)s2)C(=O)NC(C)(C)Cn2nc(C(F)(F)F)cc2Br)cn1 (single isomer, unassigned; isomer 2) [Example 7]
99.4 | 79.8 | Cn1cc(C[C@@H](NC(=O)C2CC2c2ccc(-c3cnc4nccn4c3)cc2C(F)(F)F)C(=O)NC(C)(C)Cc2ccc(F)cc2)cn1 (single isomer, unassigned; isomer 2) [Example 29]
85.5 ± 2.37 | 82.3 | Cc1cc(C2CC2C(=O)N[C@H](Cc2cnn(C)c2)C(=O)NC(C)(C)Cc2ccc(F)cc2)ccc1NC(=O)Nc1ccc(F)cc1 (single isomer, unassigned; isomer 2) [Example 50]
89.8 ± 3.63 | 189 | Cn1cc(C[C@@H](NC(=O)C2CC2c2ccc(-c3cnc4nn(C)cc4c3)s2)C(=O)NC(C)(C)Cn2nc(C(F)(F)F)cc2-c2ccc(=O)n(C)c2)cn1 (single isomer, unassigned; isomer 2) [Example 60]
88.4 ± 10.3 | 74.8 | Cn1cc2cc(-c3ccc(C4CC4C(=O)N[C@H](Cc4cnc5ncccn45)C(=O)NC(C)(C)Cn4cc(C(F)(F)F)cn4)c(F)c3)cnc2n1 (single isomer, unassigned; isomer 2) [Example 71]
102 ± 4.83 | 300 | CC(C)(Cn1cc(C(F)(F)F)cn1)NC(=O)[C@@H](Cc1cnc2ncccn12)NC(=O)C1CC1c1ccc(-c2cnc3nn(C(F)F)cc3c2)cn1 (single isomer, unassigned; isomer 2) [Example 72]
73.3 ± 2.59 | 0.701 | Cn1cc2cc(-c3ccc(C4CC45CCN([C@H](Cc4cnn(C(F)F)c4)C(=O)NC(C)(C)Cn4nc(C(F)(F)F)cc4-c4cc(F)c(=O)n(C)c4)C5=O)c(C(F)F)c3)cnc2n1 (single isomer, unassigned; isomer 2) [Example 109]
117 ± 5.22 | 55.2 | Cn1cc(C[C@@H](NC(=O)C2CC2(C)c2ccc(-c3cnc4nn(C)cc4c3)cc2)C(=O)NC(C)(C)Cn2cc(C(F)(F)F)cn2)cn1 (single isomer, unassigned; isomer 4) [Example 11]
106 ± 5.38 | 104 | Cn1cc2cc(-c3ccc([C@H]4C[C@@H]4C(=O)N[C@H](Cc4cnn(C(F)F)c4)C(=O)NC(C)(C)Cn4nc(C(F)(F)F)cc4Br)cc3)cnc2n1 [Example 12, (1S,2S)-N-((R)-1-((1-(5-bromo-3-(trifluoromethyl)-1H-pyrazol-1-yl)-2-methylpropan-2-yl)amino)-3-(1-(difluoromethyl)-1H-pyrazol-4-yl)-1-oxopropan-2-yl)-2-(4-(2-methyl-2H-pyrazolo[3,4-b]pyridin-5-yl)phenyl) cyclopropane-1-carboxamide]
103 ± 10.2 | 87.7 | Cn1cc(C[C@@H](NC(=O)[C@H]2C[C@@H]2c2ccc(-c3cnc4nn(C)cc4c3)cc2)C(=O)NC(C)(C)Cn2nc(C(F)(F)F)cc2-c2n[nH]cc2F)cn1 [Example 14, (1S,2S)-N-((R)-1-((1-(4-Fluoro-5′-(trifluoromethyl)-1H,2′H-[3,3′-bipyrazol]-2′-yl)-2-methylpropan-2-yl)amino)-3-(1-methyl-1H-pyrazol-4-yl)-1-oxopropan-2-yl)-2-(4-(2-methyl-2H-pyrazolo[3,4-b]pyridin-5-yl)phenyl) cyclopropane-1-carboxamide]
117 ± 6.6 | 24.6 | Cc1ncc(-c2cc(C(F)(F)F)nn2CC(C)(C)NC(=O)[C@@H](Cc2cnn(C)c2)NC(=O)[C@H]2C[C@@H]2c2ccc(-c3cnc4nn(C)cc4c3)cc2)[nH]1 [Example 15, (1S,2S)-N-((R)-1-((2-Methyl-1-(5-(2-methyl-1H-imidazol-5-yl)-3-(trifluoromethyl)-1H-pyrazol-1-yl)propan-2-yl)amino)-3-(1-methyl-1H-pyrazol-4-yl)-1-oxopropan-2-yl)-2-(4-(2-methyl-2H-pyrazolo[3,4-b]pyridin-5-yl)phenyl) cyclopropane-1-carboxamide]
104 ± 4.17 | 36 | Cn1cc(C[C@@H](NC(=O)[C@H]2C[C@@H]2c2ccc(-c3cnc4nn(C)cc4c3)cc2)C(=O)NC(C)(C)Cn2nc(C(F)(F)F)cc2-c2n[nH]c(=O)s2)cn1 [Example 16, (1S,2S)-N-((R)-1-((2-Methyl-1-(5-(5-oxo-4,5-dihydro-1,3,4-thiadiazol-2-yl)-3-(trifluoromethyl)-1H-pyrazol-1-yl)propan-2-yl)amino)-3-(1-methyl-1H-pyrazol-4-yl)-1-oxopropan-2-yl)-2-(4-(2-methyl-2H-pyrazolo[3,4-b]pyridin-5-yl)phenyl) cyclopropane-1-carboxamide]
129 ± 11.4 | 83.5 | Cn1cc(C[C@@H](NC(=O)[C@H]2C[C@@H]2c2ccc(-c3cnc4nn(C)cc4c3)cc2)C(=O)NC(C)(C)Cn2nc(C(F)(F)F)cc2-c2ncsn2)cn1 [Example 17, (1S,2S)-N-((R)-1-((1-(5-(1,2,4-Thiadiazol-3-yl)-3-(trifluoromethyl)-1H-pyrazol-1-yl)-2-methylpropan-2-yl)amino)-3-(1-methyl-1H-pyrazol-4-yl)-1-oxopropan-2-yl)-2-(4-(2-methyl-2H-pyrazolo [3,4-b]pyridin-5-yl)phenyl) cyclopropane-1-carboxamide]
116 ± 13 | 12 | Cn1cc(C[C@@H](NC(=O)[C@H]2C[C@@H]2c2ccc(-c3cnc4nn(C)cc4c3)cc2)C(=O)NC(C)(C)Cn2nc(C(F)(F)F)cc2-c2ccnc(C(C)(C)O)c2)cn1 [Example 18, (1S,2S)-N-((R)-1-((1-(5-(2-(2-Hydroxypropan-2-yl)pyridin-4-yl)-3-(trifluoromethyl)-1H-pyrazol-1-yl)-2-methylpropan-2-yl)amino)-3-(1-methyl-1H-pyrazol-4-yl)-1-oxopropan-2-yl)-2-(4-(2-methyl-2H-pyrazolo [3,4-b]pyridin-5-yl)phenyl) cyclopropane-1-carboxamide]
